For 29 compounds, Dmax and DC50 results are on record in patent publication US12257247B2 (Monte Rosa Therapeutics AG, priority 2023, dated 2025).

The structures appear in SMILES notation. Read-outs that look alike come from different tables or passages of the source.

The target of the experiment is T1, VAV1 (Homo sapiens, UniProt P15498+Q96SW2).
T1 construct: A heterozygous VAV1 C-terminal HiBiT knock-in pool was generated at Monte Rosa Therapeutics from a clonal Jurkat cell; endogenous in cells; host or cells: Jurkat clone stably expressing LgBiT, homozygous GSPT1-G575N; heterozygous VAV1-HiBiT knock-in pool
Description: VAV1 degradation activity, VAV1-HiBiT knock-in Jurkat luminescence assay (Example A, Table 1). It is filed as cell-based. Conditions: VAV1-HiBiT knock-in Jurkat cells, luminescence read at 6 and 24 hours; for Dmax: Jurkat. As to the method: Cells were plated at 10,000 cells per well using Multiflo (BioTek) or Multi Drop Combi (Thermo Fisher) in 384-well white solid bottom plates (Corning, 3570BC) in 25 ul volume in RPMI 1640 media (Thermo Fischer, 22400105) containing 10% FBS (Corning, 35-075-CV), 1% Penicillin/Streptomycin (ThermoFisher Scientific, 15140-122), and 1% Endurazine (Nano-Glo Endurazine Live Cell Substrate (Promega, N2571)). Cells were incubated for ˜16 hours at 37° C., 5% CO2. 25 nL of a compound at 10 μM were dosed into the plate using an Echo® 650 liquid handler (Labcyte). Cells were incubated at 37° C., 5% CO2 and signal was read at 6 and 24 hours after compound addition on a Pherastar FSX using “LUM plus” optic module.
Analysis was performed in Scinamic (Scinamic, Cambridge, MA). Luminescence response (R) was calculated by the formula: response=100*(S−N)/(P−N) where S is the signal of the well, N and P the mean negative and positive control values respectively of the same plate. The luminescence response was then fitted in Scinamic using a 3-parameter agonist logistic fit (hillslope=1, EC50>0, top/bottom unconstrained).

Where [1] appears, read: read-out: VAV1 DC50 (nM), class.

Regarding `O=C1CC[C@](F)(c2cccc(-c3ccc(N4CCCCC4=O)cc3)c2Cl)C(=O)N1` (single isomer, unassigned) [Compound 367], the Dmax (as a rule, the greatest extent of degradation seen) (read-out: VAV1 Dmax %) was determined as 90.6% and the Dmax (read-out: VAV1 Dmax %, class) is above 90%. Besides, the DC50 – broadly, the concentration giving 50% degradation – (read-out: VAV1 DC50) worked out at 706 nM and the DC50 under setting [1] fell in the range of 100 to 1000 nM.

Regarding `O=C1CC[C@@](F)(c2cccc(-c3ccc(N4CCCCC4=O)cc3)c2Cl)C(=O)N1` (single isomer, unassigned) [Compound 368], the Dmax by setting is: (read-out: VAV1 Dmax %) 98.5%; (read-out: VAV1 Dmax %, class) above 90%. Besides, the DC50 is 1.84 nM (read-out: VAV1 DC50) and at most 100 nM under setting [1].

Consider `CCc1cc(-c2cccc(C3CCC(=O)NC3=O)c2Cl)ccc1N` (centres unmarked) [Compound 101], for which the Dmax was 96% (read-out: VAV1 Dmax %) and above 90% (read-out: VAV1 Dmax %, class). Also, the DC50 is, setting by setting: (read-out: VAV1 DC50) 12.3 nM; under setting [1], at most 100 nM.

`Nc1nccn1Cc1ccc(-c2cccc(C3CCC(=O)NC3=O)c2Cl)cc1` (centres unmarked) [Compound 102]: the Dmax reads like this: (read-out: VAV1 Dmax %) 84.1%; (read-out: VAV1 Dmax %, class) 60 to 90%. Moreover, the DC50 is 240 nM (read-out: VAV1 DC50) and 100 to 1000 nM under setting [1].

As to `O=C1CCC(c2cccc(-c3ccc(OCc4ccccn4)cc3)c2Cl)C(=O)N1` (centres unmarked) [Compound 103], the Dmax runs as follows: (read-out: VAV1 Dmax %) 93.6%; (read-out: VAV1 Dmax %, class) above 90%. In addition, the DC50 was 45.4 nM (read-out: VAV1 DC50) and at most 100 nM under setting [1].

For the compound `CN1CCN(CCOc2ccc(-c3cccc(C4CCC(=O)NC4=O)c3Cl)cc2)CC1` (centres unmarked) [Compound 104], the Dmax (read-out: VAV1 Dmax %) was found to be 81.7% and the Dmax (read-out: VAV1 Dmax %, class) was 60 to 90%. Also, the DC50 (read-out: VAV1 DC50) came to 59.7 nM and the DC50 under setting [1] is at most 100 nM.

`Nc1ccc(-c2cccc(C3CCC(=O)NC3=O)c2Cl)cc1Cl` (centres unmarked) [Compound 105]: the Dmax (read-out: VAV1 Dmax %) worked out at 97.7% and the Dmax (read-out: VAV1 Dmax %, class) is above 90%. For the same compound, the DC50 (read-out: VAV1 DC50) is 18.1 nM and the DC50 under setting [1] was at most 100 nM.

On to `O=C1CCC(c2cccc(-c3ccc(C4COC(=O)N4)cc3)c2Cl)C(=O)N1` (centres unmarked) [Compound 106], for which the Dmax is 14% (read-out: VAV1 Dmax %) and below 60% (read-out: VAV1 Dmax %, class). The DC50 is, setting by setting: (read-out: VAV1 DC50) at least 10000 nM; under setting [1], above 1000 nM.

Turning to `O=C1CCC(c2cccc(-c3ccc(C4COC(=O)N4)c(F)c3)c2Cl)C(=O)N1` (centres unmarked) [Compound 107], the Dmax (read-out: VAV1 Dmax %) is 27% and the Dmax (read-out: VAV1 Dmax %, class) was below 60%. Further, the DC50 was at least 10000 nM (read-out: VAV1 DC50) and above 1000 nM under setting [1].

As to `COc1ccc(-c2cccc(C3CCC(=O)NC3=O)c2Cl)cc1OC(F)F` (centres unmarked) [Compound 108], the Dmax was 47.8% (read-out: VAV1 Dmax %) and below 60% (read-out: VAV1 Dmax %, class). Besides, the DC50 runs as follows: (read-out: VAV1 DC50) at least 10000 nM; under setting [1], above 1000 nM.

For the compound `O=C1CCC(c2cccc(-c3ccc(OC4CCOC4)cc3)c2Cl)C(=O)N1` (centres unmarked) [Compound 109], the Dmax by setting is: (read-out: VAV1 Dmax %) 66.4%; (read-out: VAV1 Dmax %, class) 60 to 90%. Further, the DC50 by setting is: (read-out: VAV1 DC50) 678 nM; under setting [1], 100 to 1000 nM.

Consider `Nc1ncn(Cc2ccc(-c3cccc(C4CCC(=O)NC4=O)c3Cl)cc2)n1` (centres unmarked) [Compound 110], for which the Dmax reads like this: (read-out: VAV1 Dmax %) 89.2%; (read-out: VAV1 Dmax %, class) 60 to 90%. Also, the DC50 (read-out: VAV1 DC50) turned out to be 22.3 nM and the DC50 under setting [1] is at most 100 nM.

With `Cc1nccn1Cc1ccc(-c2cccc(C3CCC(=O)NC3=O)c2Cl)cc1` (centres unmarked) [Compound 111], the Dmax reads like this: (read-out: VAV1 Dmax %) 87.8%; (read-out: VAV1 Dmax %, class) 60 to 90%. For the same compound, the DC50 is, setting by setting: (read-out: VAV1 DC50) 49.2 nM; under setting [1], at most 100 nM.

For `N#Cc1cc(-c2cccc(C3CCC(=O)NC3=O)c2Cl)ccc1O` (centres unmarked) [Compound 112], the Dmax was 78.2% (read-out: VAV1 Dmax %) and 60 to 90% (read-out: VAV1 Dmax %, class). The DC50 is 119 nM (read-out: VAV1 DC50) and 100 to 1000 nM under setting [1].

As for `Nc1ccc(-c2cccc(C3CCC(=O)NC3=O)c2Cl)cc1OC(F)F` (centres unmarked) [Compound 113], the Dmax by setting is: (read-out: VAV1 Dmax %) 64.6%; (read-out: VAV1 Dmax %, class) 60 to 90%. The DC50 (read-out: VAV1 DC50) is 482 nM and the DC50 under setting [1] fell in the range of 100 to 1000 nM.

Turning to `CCNc1ccc(-c2cccc(C3CCC(=O)NC3=O)c2Cl)cc1` (centres unmarked) [Compound 115], the Dmax is 80.9% (read-out: VAV1 Dmax %) and 60 to 90% (read-out: VAV1 Dmax %, class). Further, the DC50 is, setting by setting: (read-out: VAV1 DC50) 125 nM; under setting [1], 100 to 1000 nM.

As for `CNc1ccc(-c2cccc(C3CCC(=O)NC3=O)c2Cl)cc1C` (centres unmarked) [Compound 116], the Dmax was 96% (read-out: VAV1 Dmax %) and above 90% (read-out: VAV1 Dmax %, class). The DC50 (read-out: VAV1 DC50) amounted to 22.3 nM and the DC50 under setting [1] is at most 100 nM.

For the compound `O=C1CCC(c2cccc(-c3ccc(OCCCO)cc3)c2Cl)C(=O)N1` (centres unmarked) [Compound 117], the Dmax was 72% (read-out: VAV1 Dmax %) and 60 to 90% (read-out: VAV1 Dmax %, class). In addition, the DC50 was 353 nM (read-out: VAV1 DC50) and 100 to 1000 nM under setting [1].

As for `Nc1ccnn1Cc1ccc(-c2cccc(C3CCC(=O)NC3=O)c2Cl)cc1` (centres unmarked) [Compound 118], the Dmax by setting is: (read-out: VAV1 Dmax %) 89.7%; (read-out: VAV1 Dmax %, class) 60 to 90%. In addition, the DC50 (read-out: VAV1 DC50) turned out to be 39.7 nM and the half-maximal degradation concentration (DC50) under setting [1] was at most 100 nM.

As for `O=C1CCC(c2cccc(-c3ccc(OCC4CCCO4)cc3)c2Cl)C(=O)N1` (centres unmarked) [Compound 119], the Dmax by setting is: (read-out: VAV1 Dmax %) 87.1%; (read-out: VAV1 Dmax %, class) 60 to 90%. In addition, the DC50 is 69.3 nM (read-out: VAV1 DC50) and at most 100 nM under setting [1].

For `O=C1CCC(c2cccc(-c3ccc(Cn4cccn4)cc3)c2Cl)C(=O)N1` (centres unmarked) [Compound 120], the Dmax was 94% (read-out: VAV1 Dmax %) and above 90% (read-out: VAV1 Dmax %, class). Moreover, the DC50 is 15.1 nM (read-out: VAV1 DC50) and at most 100 nM under setting [1].

Turning to `O=C1CN(CCOc2ccc(-c3cccc(C4CCC(=O)NC4=O)c3Cl)cc2)CCN1` (centres unmarked) [Compound 121], the Dmax was 94% (read-out: VAV1 Dmax %) and above 90% (read-out: VAV1 Dmax %, class). The DC50 is 11 nM (read-out: VAV1 DC50) and at most 100 nM under setting [1].

`O=C1CCC(c2cccc(-c3ccc(CCN4CCOCC4)cc3)c2Cl)C(=O)N1` (centres unmarked) [Compound 122]: the maximal degradation (Dmax) runs as follows: (read-out: VAV1 Dmax %) 81.3%; (read-out: VAV1 Dmax %, class) 60 to 90%. In addition, the DC50 reads like this: (read-out: VAV1 DC50) 48.8 nM; under setting [1], at most 100 nM.

Regarding `O=C1CCC(c2cccc(-c3ccc(OCc4cccnc4)cc3)c2Cl)C(=O)N1` (centres unmarked) [Compound 123], the Dmax by setting is: (read-out: VAV1 Dmax %) 96.3%; (read-out: VAV1 Dmax %, class) above 90%. Also, the DC50 is 11.6 nM (read-out: VAV1 DC50) and at most 100 nM under setting [1].

In the case of `O=C1CCC(c2cccc(-c3ccc(OCc4ccncc4)cc3)c2Cl)C(=O)N1` (centres unmarked) [Compound 124], the Dmax is 98.8% (read-out: VAV1 Dmax %) and above 90% (read-out: VAV1 Dmax %, class). Moreover, the DC50 reads like this: (read-out: VAV1 DC50) 4.04 nM; under setting [1], at most 100 nM.

As to `COc1cc(-c2cccc(C3CCC(=O)NC3=O)c2Cl)ccc1C(F)F` (centres unmarked) [Compound 125], the Dmax was 75.9% (read-out: VAV1 Dmax %) and 60 to 90% (read-out: VAV1 Dmax %, class). In addition, the DC50 (read-out: VAV1 DC50) worked out at 1530 nM and the DC50 under setting [1] was above 1000 nM.

Take `COCCCOc1ccc(-c2cccc(C3CCC(=O)NC3=O)c2Cl)cc1` (centres unmarked) [Compound 126]: the Dmax by setting is: (read-out: VAV1 Dmax %) 91.4%; (read-out: VAV1 Dmax %, class) above 90%. The DC50 (read-out: VAV1 DC50) is 127 nM and the DC50 under setting [1] fell in the range of 100 to 1000 nM.

`Cc1cc(C)n(Cc2ccc(-c3cccc(C4CCC(=O)NC4=O)c3Cl)cc2)n1` (centres unmarked) [Compound 127]: the Dmax reads like this: (read-out: VAV1 Dmax %) 92.4%; (read-out: VAV1 Dmax %, class) above 90%. Further, the DC50 is 39 nM (read-out: VAV1 DC50) and at most 100 nM under setting [1].

Regarding `CC(=O)Nc1ccc(-c2cccc(C3CCC(=O)NC3=O)c2Cl)cc1` (centres unmarked) [Compound 128], the Dmax was 81.1% (read-out: VAV1 Dmax %) and 60 to 90% (read-out: VAV1 Dmax %, class). In addition, the DC50 is, setting by setting: (read-out: VAV1 DC50) 67.4 nM; under setting [1], at most 100 nM.
